Laboratory results from PMC5564600 (Oncotarget, 2017).

What was measured:
Assay in all cases: biochemical
Assay type in all cases: binding
panel of 442 kinases [1] = target: T1, panel of 442 kinases (Homo sapiens, UniProt P10721, L576P); settings: kinase KIT(L576P); for remaining activity at 1 µM: read-out: % of control at 1 µM
T1 construct: purchased Ambit Biosciences (scanMAXX KINOMEscan)

panel of 442 kinases [2] = target: T2, panel of 442 kinases (Homo sapiens, UniProt P35968); settings: kinase VEGFR2; for remaining activity at 1 µM: read-out: VEGFR2 (% of control at 1 µM)
T2 construct: purchased Ambit Biosciences (scanMAXX KINOMEscan)

panel of 442 kinases [3] = target: T3, panel of 442 kinases (Homo sapiens, UniProt Q15569); settings: kinase TESK1; for remaining activity at 1 µM: read-out: TESK1 (% of control at 1 µM)
T3 construct: purchased Ambit Biosciences (scanMAXX KINOMEscan)

panel of 442 kinases [4] = target: T4, panel of 442 kinases (Homo sapiens, UniProt P08581, Y1235D); settings: kinase MET(Y1235D); for remaining activity at 1 µM: read-out: % of control at 1 µM
T4 construct: purchased Ambit Biosciences (scanMAXX KINOMEscan)

panel of 442 kinases [5] = target: T5, panel of 442 kinases (Homo sapiens, UniProt Q9NRP7); settings: kinase STK36; for remaining activity at 1 µM: read-out: STK36 (% of control at 1 µM)
T5 construct: purchased Ambit Biosciences (scanMAXX KINOMEscan)
T5 sequence (Q9NRP7 1-1315): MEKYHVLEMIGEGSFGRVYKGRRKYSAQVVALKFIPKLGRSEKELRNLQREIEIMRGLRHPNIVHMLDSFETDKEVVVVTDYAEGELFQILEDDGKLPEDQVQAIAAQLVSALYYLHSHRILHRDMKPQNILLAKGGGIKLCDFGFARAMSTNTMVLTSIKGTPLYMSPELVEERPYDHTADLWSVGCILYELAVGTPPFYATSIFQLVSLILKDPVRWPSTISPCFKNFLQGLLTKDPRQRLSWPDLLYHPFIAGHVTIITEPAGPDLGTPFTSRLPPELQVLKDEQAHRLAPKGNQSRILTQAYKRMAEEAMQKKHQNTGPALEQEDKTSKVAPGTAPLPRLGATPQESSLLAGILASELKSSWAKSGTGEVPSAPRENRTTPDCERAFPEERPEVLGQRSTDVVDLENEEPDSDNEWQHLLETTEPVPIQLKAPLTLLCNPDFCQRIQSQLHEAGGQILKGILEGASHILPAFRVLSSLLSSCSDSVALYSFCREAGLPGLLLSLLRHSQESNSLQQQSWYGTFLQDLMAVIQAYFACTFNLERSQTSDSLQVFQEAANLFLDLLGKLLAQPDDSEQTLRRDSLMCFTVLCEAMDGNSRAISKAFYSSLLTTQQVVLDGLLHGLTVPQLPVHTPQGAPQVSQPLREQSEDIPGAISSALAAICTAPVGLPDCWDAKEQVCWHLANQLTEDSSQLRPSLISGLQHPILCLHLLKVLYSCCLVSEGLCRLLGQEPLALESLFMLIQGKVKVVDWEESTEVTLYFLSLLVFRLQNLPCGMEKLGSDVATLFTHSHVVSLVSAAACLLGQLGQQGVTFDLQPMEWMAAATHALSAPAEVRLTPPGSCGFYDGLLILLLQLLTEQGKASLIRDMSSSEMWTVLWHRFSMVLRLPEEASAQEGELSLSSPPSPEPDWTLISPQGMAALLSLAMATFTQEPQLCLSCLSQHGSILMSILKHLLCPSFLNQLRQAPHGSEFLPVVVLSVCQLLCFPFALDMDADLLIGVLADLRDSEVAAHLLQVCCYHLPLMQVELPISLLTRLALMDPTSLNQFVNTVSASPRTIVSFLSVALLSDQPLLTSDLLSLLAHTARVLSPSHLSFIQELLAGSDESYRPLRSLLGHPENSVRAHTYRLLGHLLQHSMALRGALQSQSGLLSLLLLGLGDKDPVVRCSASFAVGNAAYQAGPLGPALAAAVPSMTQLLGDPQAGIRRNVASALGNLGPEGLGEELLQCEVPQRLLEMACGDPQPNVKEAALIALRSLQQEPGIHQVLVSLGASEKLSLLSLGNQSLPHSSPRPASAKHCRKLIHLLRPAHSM

panel of 442 kinases [6] = target: T6, panel of 442 kinases (Homo sapiens, UniProt Q06418); settings: kinase TYRO3; for remaining activity at 1 µM: read-out: TYRO3 (% of control at 1 µM)
T6 construct: purchased Ambit Biosciences (scanMAXX KINOMEscan)
T6 sequence (Q06418 41-890): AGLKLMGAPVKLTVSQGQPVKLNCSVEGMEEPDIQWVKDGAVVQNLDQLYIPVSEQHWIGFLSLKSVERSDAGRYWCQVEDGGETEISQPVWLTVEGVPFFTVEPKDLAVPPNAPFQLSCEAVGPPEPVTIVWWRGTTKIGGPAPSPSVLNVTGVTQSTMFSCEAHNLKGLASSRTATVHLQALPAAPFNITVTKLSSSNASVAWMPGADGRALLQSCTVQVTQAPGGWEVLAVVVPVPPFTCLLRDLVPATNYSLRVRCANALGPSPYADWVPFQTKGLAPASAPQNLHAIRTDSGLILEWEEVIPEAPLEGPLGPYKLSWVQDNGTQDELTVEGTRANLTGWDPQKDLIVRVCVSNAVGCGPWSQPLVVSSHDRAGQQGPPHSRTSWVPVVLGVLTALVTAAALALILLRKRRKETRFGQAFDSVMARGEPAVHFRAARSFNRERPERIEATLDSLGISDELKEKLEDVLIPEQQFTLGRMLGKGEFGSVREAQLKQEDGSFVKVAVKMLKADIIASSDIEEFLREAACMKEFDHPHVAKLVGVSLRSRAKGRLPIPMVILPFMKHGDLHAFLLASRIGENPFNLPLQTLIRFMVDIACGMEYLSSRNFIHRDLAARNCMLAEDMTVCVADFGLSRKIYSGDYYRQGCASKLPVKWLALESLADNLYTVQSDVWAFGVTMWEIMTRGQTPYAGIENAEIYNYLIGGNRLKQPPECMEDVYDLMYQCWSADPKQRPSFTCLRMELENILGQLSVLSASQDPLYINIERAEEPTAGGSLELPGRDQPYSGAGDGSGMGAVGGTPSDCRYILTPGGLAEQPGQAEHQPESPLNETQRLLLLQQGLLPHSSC

panel of 442 kinases [7] = target: T7, panel of 442 kinases (Homo sapiens, UniProt P10721, A829P); settings: kinase KIT(A829P); for remaining activity at 1 µM: read-out: % of control at 1 µM
T7 construct: purchased Ambit Biosciences (scanMAXX KINOMEscan)

[8] = 10 µM, read-out: % of control at 10 µM

T2 sequence (P35968 20-1356): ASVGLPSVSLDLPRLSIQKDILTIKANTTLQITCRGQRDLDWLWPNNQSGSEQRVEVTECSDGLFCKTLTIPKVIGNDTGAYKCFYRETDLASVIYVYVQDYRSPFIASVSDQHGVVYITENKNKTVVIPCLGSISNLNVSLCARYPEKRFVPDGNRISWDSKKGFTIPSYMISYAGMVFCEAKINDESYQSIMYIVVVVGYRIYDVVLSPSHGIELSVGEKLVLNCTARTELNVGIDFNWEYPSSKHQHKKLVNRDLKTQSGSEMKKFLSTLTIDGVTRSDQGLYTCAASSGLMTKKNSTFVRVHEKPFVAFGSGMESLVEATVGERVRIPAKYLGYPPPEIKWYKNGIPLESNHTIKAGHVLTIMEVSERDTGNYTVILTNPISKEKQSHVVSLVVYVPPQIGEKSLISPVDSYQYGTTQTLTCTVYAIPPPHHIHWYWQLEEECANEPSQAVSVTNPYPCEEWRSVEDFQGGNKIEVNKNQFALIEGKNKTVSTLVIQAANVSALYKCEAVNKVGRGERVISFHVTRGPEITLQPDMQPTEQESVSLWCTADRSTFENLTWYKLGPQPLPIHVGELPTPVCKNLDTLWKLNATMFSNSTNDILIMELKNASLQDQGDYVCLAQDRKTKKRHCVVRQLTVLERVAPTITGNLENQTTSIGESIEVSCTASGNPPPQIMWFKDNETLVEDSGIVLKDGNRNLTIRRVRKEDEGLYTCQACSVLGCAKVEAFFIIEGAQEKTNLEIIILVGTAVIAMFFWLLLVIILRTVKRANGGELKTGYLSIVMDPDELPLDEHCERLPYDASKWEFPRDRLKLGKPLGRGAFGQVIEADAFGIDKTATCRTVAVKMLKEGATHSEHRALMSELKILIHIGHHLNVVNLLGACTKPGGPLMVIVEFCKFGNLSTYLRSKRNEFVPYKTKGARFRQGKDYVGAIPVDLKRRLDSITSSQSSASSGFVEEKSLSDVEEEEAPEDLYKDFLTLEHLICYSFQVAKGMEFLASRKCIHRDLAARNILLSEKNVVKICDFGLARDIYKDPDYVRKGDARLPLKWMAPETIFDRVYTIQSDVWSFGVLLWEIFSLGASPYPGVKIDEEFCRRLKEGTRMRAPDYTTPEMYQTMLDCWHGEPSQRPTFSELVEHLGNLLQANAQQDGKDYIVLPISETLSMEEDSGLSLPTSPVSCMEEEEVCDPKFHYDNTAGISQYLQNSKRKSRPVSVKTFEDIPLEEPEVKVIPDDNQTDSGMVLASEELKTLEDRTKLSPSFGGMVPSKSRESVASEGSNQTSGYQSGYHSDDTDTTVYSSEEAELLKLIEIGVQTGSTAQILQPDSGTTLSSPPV
T7 sequence (P10721 26-976 A829P): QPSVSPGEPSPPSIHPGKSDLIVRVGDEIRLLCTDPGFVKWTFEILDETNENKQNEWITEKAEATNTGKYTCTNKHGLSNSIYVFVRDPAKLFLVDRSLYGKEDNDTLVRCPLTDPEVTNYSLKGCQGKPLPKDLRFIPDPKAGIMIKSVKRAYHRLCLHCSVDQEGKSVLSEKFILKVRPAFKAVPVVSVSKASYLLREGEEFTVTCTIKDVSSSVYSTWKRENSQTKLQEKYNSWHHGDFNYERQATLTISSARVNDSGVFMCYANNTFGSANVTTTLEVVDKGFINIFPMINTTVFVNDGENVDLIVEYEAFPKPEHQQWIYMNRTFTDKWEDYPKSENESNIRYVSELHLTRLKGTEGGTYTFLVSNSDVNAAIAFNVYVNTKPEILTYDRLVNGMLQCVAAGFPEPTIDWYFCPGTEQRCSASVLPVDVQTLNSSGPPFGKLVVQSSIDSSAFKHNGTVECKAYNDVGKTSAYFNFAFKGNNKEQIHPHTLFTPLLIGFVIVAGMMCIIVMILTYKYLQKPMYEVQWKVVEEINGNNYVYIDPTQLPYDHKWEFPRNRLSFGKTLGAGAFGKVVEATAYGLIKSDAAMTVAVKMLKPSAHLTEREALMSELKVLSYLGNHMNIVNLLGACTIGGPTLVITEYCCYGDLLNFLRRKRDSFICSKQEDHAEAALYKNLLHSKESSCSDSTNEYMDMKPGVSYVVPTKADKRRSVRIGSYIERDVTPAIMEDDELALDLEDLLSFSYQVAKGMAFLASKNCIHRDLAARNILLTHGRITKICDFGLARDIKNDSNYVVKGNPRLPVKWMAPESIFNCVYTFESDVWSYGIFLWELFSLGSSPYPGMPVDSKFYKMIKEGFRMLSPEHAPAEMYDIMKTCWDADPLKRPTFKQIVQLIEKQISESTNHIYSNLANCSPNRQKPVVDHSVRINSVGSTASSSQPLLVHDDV
T4 sequence (P08581 25-1390 Y1235D): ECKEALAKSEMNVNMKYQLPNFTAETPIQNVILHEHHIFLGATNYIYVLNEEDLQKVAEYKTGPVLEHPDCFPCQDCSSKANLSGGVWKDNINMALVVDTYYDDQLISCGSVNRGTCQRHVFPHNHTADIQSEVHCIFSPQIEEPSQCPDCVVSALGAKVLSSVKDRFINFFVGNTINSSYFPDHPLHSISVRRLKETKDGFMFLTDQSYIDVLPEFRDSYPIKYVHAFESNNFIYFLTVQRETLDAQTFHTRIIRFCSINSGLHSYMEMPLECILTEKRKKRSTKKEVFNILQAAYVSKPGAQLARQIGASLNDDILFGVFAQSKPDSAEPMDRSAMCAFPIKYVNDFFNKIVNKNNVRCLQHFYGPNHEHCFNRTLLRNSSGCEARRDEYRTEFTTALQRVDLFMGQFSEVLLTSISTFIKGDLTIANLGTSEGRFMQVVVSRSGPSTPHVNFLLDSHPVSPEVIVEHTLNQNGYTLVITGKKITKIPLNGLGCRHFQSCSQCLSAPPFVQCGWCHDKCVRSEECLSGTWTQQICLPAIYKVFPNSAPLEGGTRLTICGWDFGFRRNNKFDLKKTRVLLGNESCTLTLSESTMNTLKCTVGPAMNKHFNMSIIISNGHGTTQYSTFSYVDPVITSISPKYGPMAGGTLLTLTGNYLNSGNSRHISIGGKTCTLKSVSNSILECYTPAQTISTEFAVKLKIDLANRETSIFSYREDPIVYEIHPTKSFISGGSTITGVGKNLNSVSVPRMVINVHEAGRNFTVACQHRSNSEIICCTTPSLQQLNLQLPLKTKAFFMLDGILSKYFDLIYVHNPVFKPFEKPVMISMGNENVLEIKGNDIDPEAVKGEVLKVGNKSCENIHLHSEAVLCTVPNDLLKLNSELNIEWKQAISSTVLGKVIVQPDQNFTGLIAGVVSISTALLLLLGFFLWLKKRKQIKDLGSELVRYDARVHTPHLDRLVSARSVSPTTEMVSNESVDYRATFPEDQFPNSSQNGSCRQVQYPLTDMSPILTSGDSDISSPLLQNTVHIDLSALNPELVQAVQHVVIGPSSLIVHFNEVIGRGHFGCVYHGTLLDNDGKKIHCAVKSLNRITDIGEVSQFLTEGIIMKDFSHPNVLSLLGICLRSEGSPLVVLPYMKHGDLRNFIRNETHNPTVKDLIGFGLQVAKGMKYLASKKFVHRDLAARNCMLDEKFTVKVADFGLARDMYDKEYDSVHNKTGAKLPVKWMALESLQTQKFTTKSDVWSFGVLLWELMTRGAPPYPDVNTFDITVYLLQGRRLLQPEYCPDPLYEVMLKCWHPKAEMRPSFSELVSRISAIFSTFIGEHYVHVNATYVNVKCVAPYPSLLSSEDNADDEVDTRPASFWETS
T1 sequence (P10721 26-976 L576P): as the sequence (P10721 26-976 A829P) above, with L551P, P804A counted along it
T3 sequence (Q15569 whole entry): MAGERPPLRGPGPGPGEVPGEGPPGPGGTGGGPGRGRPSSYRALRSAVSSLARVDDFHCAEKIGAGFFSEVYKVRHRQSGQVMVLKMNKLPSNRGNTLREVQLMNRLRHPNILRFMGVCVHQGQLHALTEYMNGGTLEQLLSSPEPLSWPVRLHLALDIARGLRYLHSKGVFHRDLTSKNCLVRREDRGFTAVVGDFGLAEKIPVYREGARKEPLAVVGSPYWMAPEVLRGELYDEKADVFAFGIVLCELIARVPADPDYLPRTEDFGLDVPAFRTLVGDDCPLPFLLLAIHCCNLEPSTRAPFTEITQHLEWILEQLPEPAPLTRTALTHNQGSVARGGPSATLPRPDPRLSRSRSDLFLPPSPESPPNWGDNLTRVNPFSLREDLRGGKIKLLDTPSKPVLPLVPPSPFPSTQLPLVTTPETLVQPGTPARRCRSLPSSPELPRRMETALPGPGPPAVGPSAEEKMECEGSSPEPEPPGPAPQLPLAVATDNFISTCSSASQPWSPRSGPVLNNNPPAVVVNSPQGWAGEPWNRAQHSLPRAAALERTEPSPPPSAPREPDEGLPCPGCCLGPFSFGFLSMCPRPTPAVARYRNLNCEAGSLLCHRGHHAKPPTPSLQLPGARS

Row | Compound | remaining activity at 1 µM (panel of 442 kinases [1]) [%] | remaining activity at 10 µM (panel of 442 kinases [1]; [8]) [%] | remaining activity at 1 µM (panel of 442 kinases [2]) [%] | remaining activity at 10 µM (panel of 442 kinases [2]; 10 µM, read-out: VEGFR2 (% of control at 10 µM)) [%] | remaining activity at 1 µM (panel of 442 kinases [3]) [%] | remaining activity at 10 µM (panel of 442 kinases [3]; 10 µM, read-out: TESK1 (% of control at 10 µM)) [%] | remaining activity at 1 µM (panel of 442 kinases [4]) [%] | remaining activity at 10 µM (panel of 442 kinases [4]; [8]) [%] | remaining activity at 1 µM (panel of 442 kinases [5]) [%] | remaining activity at 10 µM (panel of 442 kinases [5]; 10 µM, read-out: STK36 (% of control at 10 µM)) [%] | remaining activity at 1 µM (panel of 442 kinases [6]) [%] | remaining activity at 10 µM (panel of 442 kinases [6]; 10 µM, read-out: TYRO3 (% of control at 10 µM)) [%] | remaining activity at 1 µM (panel of 442 kinases [7]) [%] | remaining activity at 10 µM (panel of 442 kinases [7]; [8]) [%]
1 | Nc1cc(C(F)(F)F)c(-c2cc(N3CCOCC3)nc(N3CCOCC3)n2)cn1 [Buparlisib] | 80 | 24 | 87 | 100 | 92 | 100 | 100 | 99 | 100 | 100 | 100 | 100 | 100 | 98
2 | COc1ncc(-c2ccc3nccc(-c4ccnnc4)c3c2)cc1NS(=O)(=O)c1ccc(F)cc1F [Omipalisib] | 90 | – | 78 | – | 73 | – | 100 | – | 85 | – | 100 | – | 100 | –
3 | FC(F)c1nc2ccccc2n1-c1nc(N2CCOCC2)nc(N2CCOCC2)n1 [ZSTK474, 2-(difluoromethyl)-1-[4,6-di(4-morpholinyl)-1,3,5-triazin-2-yl]-1H-benzimidazole] | 100 | – | 100 | – | 96 | – | 92 | – | 95 | – | 88 | – | 90 | –
4 | Cn1c(=O)n(-c2ccc(C(C)(C)C#N)cc2)c2c3cc(-c4cnc5ccccc5c4)ccc3ncc21 [Dactolisib, 2-methyl-2-[4-(3-methyl-2-oxo-8-quinolin-3-yl-2,3-dihydroimidazo[4,5-c]quinolin-1-yl)-phenyl] propionitrile] | 59 | – | 100 | – | 100 | – | – | – | 89 | – | 100 | – | 61 | –
